Where a name gives a salt, the structure may show the parent alone.
Tests used:
human thrombin = molecular target: T1, human thrombin (Homo sapiens, UniProt P00734); assay: Inhibition of human thrombin (fibrinogen substrate, fibrin formation); type: biochemical; details: human thrombin 0.7 nM, 10 min preincubation, 20° C., pH 7.4
T1 construct: purchased Sigma
Protocol: (§1) Inhibitors, enzymes and substrates are diluted in the same buffer ([…] phosphate buffer, pH 7.4, containing 0.12 M sodium chloride and 0.05% of bovine serum albumin) and then distributed on a polystyrene microtitre plate in a volume of 50 μl. The fibrin formed by the thrombin or by the paranitroanilide released by the action of the serine protease is measured using a spectrophotometer at 405 nm after from 15 to 30 minutes' reaction at 20° C. Table 2 below gives in nM the concentration of the compounds that inhibits 50% of the enzymatic activity (IC50) of the thrombin compared with the control without product.

human plasma [1] = assay: Anti-coagulant activity, activated cephalin time (ACT) in human plasma; type: biochemical; details: 37° C.
Protocol: (§2) In order to evaluate the anti-coagulant activity of the compounds of the invention, the thrombin time (TT) and activated cephalin time (ACT) were determined from human plasma samples. An ST4 coagulometer (Diagnostica Stago, France) was used. Plasma, deficient in platelets and lyophilised (Stago), is taken up in distilled water. The TT is obtained using the reagent Prest Thrombin and the ACT using the reagent PTT Automate […]. […] Under those conditions, the TT is of the order of 18 seconds and the ACT is of the order of 12 seconds. The activity of an antagonist is evaluated by its capacity to prolong the TT and the ACT relative to the control. The effect of the inhibitors is expressed by the concentration in μM that doubles the coagulation time (Ctt2).

human plasma [2] = assay: Anti-coagulant activity, thrombin time (TT) in human plasma; type: biochemical; details: 37° C.
Protocol: as §2

dog plasma [3] = assay: Anti-coagulant activity after administration per os to dogs, TT; type: in vivo; details: p.o.
Protocol: (§3) […] The coagulation times (TT, ACT) are determined from dog plasma samples 10 minutes before and 30 min, 1 hour, 2 hours, 4 hours and 6 hours after administration of the products.

dog plasma [4] = assay: Anti-coagulant activity after administration per os to dogs, ACT; type: in vivo; details: p.o.
Protocol: as §3

t-PA = t-PA (Homo sapiens, UniProt P00750); assay: Inhibition of fibrinolysis serine proteases: t-PA; type: biochemical; details: fibrinolysis protease
Protocol: as §1, with “Table 3” for “Table 2”, “the fibrinolysis proteases.” for “the thrombin compared with the control without product.”

human plasmin = molecular target: T2, human plasmin (Homo sapiens, UniProt P00747); assay: Inhibition of fibrinolysis serine proteases: plasmin; type: biochemical; details: human plasmin 2 nM, substrate S 2403 0.50 mM, 20° C., pH 7.4
T2 construct: purchased Stago
Protocol: as §1, with “Table 3” for “Table 2”, “the fibrinolysis proteases.” for “the thrombin compared with the control without product.”

uPA = uPA (Homo sapiens, UniProt P00749); assay: Inhibition of fibrinolysis serine proteases: uPA; type: biochemical; details: fibrinolysis protease
Protocol: as §1, with “Table 3” for “Table 2”, “the fibrinolysis proteases.” for “the thrombin compared with the control without product.”

Chain of t-PA (P00750 36-562): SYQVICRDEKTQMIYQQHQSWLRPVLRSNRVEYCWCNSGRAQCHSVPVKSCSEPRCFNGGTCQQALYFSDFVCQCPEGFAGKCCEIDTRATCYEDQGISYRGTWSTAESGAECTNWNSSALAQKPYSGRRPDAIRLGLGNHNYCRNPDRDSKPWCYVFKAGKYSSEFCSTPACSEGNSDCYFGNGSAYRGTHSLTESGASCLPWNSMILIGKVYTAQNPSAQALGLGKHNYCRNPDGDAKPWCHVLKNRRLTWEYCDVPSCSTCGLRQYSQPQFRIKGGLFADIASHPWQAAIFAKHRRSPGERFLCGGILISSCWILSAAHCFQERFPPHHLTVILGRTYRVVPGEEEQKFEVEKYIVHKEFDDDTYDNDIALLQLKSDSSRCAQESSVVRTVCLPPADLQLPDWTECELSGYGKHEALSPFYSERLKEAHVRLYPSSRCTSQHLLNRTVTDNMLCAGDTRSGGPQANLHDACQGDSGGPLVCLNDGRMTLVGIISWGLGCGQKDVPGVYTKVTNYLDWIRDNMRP
T2 sequence (P00747 581-810 limits assumed): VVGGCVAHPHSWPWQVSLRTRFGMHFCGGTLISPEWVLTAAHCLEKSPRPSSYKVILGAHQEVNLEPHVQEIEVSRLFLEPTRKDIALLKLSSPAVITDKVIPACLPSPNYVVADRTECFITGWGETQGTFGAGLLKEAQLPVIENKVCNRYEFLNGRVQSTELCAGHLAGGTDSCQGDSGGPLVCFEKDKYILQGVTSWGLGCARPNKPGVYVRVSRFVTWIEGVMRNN

IC50 (human thrombin) | IC50 (t-PA) | IC50 (human plasmin) | IC50 (uPA) | Compound | ACT Ctt2 (concentration that doubles the coagulation time) (human plasma [1]) | TT Ctt2 (concentration that doubles the coagulation time) (human plasma [2]) | Maximum TT increase (number of times by which the initial time has been increased) (dog plasma [3]; 10 mg/kg) | Maximum ACT increase (number of times by which the initial time has been increased) (dog plasma [4]; 10 mg/kg) | Maximum TT increase (number of times by which the initial time has been increased) (dog plasma [3]; 3 mg/kg) | Maximum ACT increase (number of times by which the initial time has been increased) (dog plasma [4]; 3 mg/kg)
0.043 µM | – | – | – | Cc1nc(N)ccc1CNC(=O)[C@@H]1CCc2cnc(NCC3c4ccccc4CCc4ccccc43)c(=O)n21 [Example 40, (6S)-N-[(6-Amino-2-methyl-3-pyridyl)methyl]-3-[(10,11-dihydro-5H-dibenzo[a,d]cyclohepten-5-yl)methylamino]-4-oxo-4,6,7,8-tetrahydropyrrolo[1,2-a]pyrazine-6-carboxamide dihydrochloride] | – | – | – | – | – | –
0.0039 µM | – | – | – | COc1ccc(C(CNc2ncc3n(c2=O)[C@H](C(=O)NCc2ccc(N)nc2C)CC3)c2ccc(OC)cc2)cc1.Cl.Cl [Example 23, (6S)-N-[(6-Amino-2-methyl-3-pyridyl)methyl]-3-[2,2-bis-(4-methoxy-phenyl)ethylamino]-4-oxo-4,6,7,8-tetrahydropyrrolo[1,2-a]pyrazine-6-carboxamide dihydrochloride] | 2.75 µM | 0.24 µM | – | – | – | –
0.02 µM | – | – | – | Cc1nc(N)ccc1CNC(=O)[C@@H]1CCc2cnc(NCC(c3ccccn3)c3ccccn3)c(=O)n21.Cl.Cl.Cl.Cl [Example 22, (6S)-N-[(6-Amino-2-methyl-3-pyridyl)methyl]-3-[2,2-di-(2-pyridyl)ethylamino]-4-oxo-4,6,7,8-tetrahydropyrrolo[1,2-a]pyrazine-6-carboxamide tetrahydrochloride] | 3.07 µM | 0.22 µM | 4.5 times | 1.5 times | – | –
0.034 µM | > 33 µM | > 33 µM | > 33 µM | Cc1nc(N)ccc1CNC(=O)[C@@H]1CCc2cnc(NCCc3ccccc3)c(=O)n21 [Example 1, (6S)-N-[(6-Amino-2-methyl-3-pyridyl)methyl]-4-oxo-3-(2-phenethylamino)-4,6,7,8-tetrahydropyrrolo[1,2-a]pyrazine-6-carboxamide dihydrochloride] | 9.1 µM | 3 µM | – | – | 3.6 times | 1.6 times
0.006 µM | – | – | – | Cc1nc(N)ccc1CNC(=O)[C@@H]1CCc2cnc(NCC(c3ccccc3)c3ccccn3)c(=O)n21 (single isomer, unassigned) [Example 20] | 2.17 µM | 0.15 µM | – | – | 4.4 times | 1.4 times
0.017 µM | – | – | – | Cc1nc(N)ccc1CNC(=O)[C@@H]1CCc2cnc(NCCc3cccnc3)c(=O)n21.Cl.Cl.Cl [Example 16, (6S)-N-[(6-Amino-2-methyl-3-pyridyl)methyl]-4-oxo-3-[2-(3-pyridyl)ethylamino]-4,6,7,8-tetrahydropyrrolo[1,2-a]pyrazine-6-carboxamide trihydrochloride] | 1.6 µM | 0.17 µM | 13.3 times | 2.4 times | – | –
0.014 µM | – | – | – | CCNC(=O)COc1ccccc1CNC(=O)[C@@H]1CCc2cnc(NCC(c3ccccc3)c3ccccc3)c(=O)n21 [Example 103, (6S)-N-[(2-Ethylcarbamoylmethoxy)-benzyl]-4-oxo-3-(2,2-diphenylethylamino)-4,6,7,8-tetrahydropyrrolo[1,2-a]pyrazine-6-carboxamide hydrochloride] | – | – | – | – | – | –
0.008 µM | > 33 µM | > 33 µM | > 33 µM | COc1ccc(C(CNc2ncc3n(c2=O)C(C(=O)NCc2ccc(N)nc2C)CC3)c2ccc(OC)cc2)cc1.Cl.Cl (centres unmarked) [Example 98, N-[(6-Amino-2-methyl-3-pyridyl)-methyl]-3-[2,2-bis-(4-methoxy-phenyl)-ethylamino]-4-oxo-4,6,7,8-tetrahydropyrrolo[1,2-a]pyrazine-6-carboxamide dihydrochloride] | 3.54 µM | 0.33 µM | 6.1 times | 1.4 times | – | –
0.011 µM | > 33 µM | > 33 µM | > 33 µM | Cc1nc(N)ccc1CNC(=O)[C@@H]1CCc2cnc(NCC(c3ccccc3)c3ccccc3)c(=O)n21.Cl.Cl [Example 6, (6S)-N-[(6-Amino-2-methyl-3-pyridyl)methyl]-3-[(2,2-diphenylethyl)amino]-4-oxo-4,6,7,8-tetrahydropyrrolo[1,2-a]pyrazine-6-carboxamide dihydrochloride] | 2.5 µM | 0.4 µM | 6.2 times | 1.7 times | – | –
0.016 µM | – | – | – | Cc1cc(CNC(=O)[C@@H]2CCc3cnc(NCCc4ccccn4)c(=O)n32)c(C)nc1N.Cl.Cl.Cl [Example 68, (6S)-N-[(6-Amino-2,5-dimethyl-3-pyridyl)methyl]-3-[2-(2-pyridyl)ethylamino]-4-oxo-4,6,7,8-tetrahydropyrrolo[1,2-a]pyrazine-6-carboxamide trihydrochloride] | 2.04 µM | 0.23 µM | – | – | – | –
0.029 µM | – | – | – | Cc1nc(N)ccc1CNC(=O)[C@@H]1CCc2cnc(NCCc3cccc4ccccc34)c(=O)n21 [Example 50, (6S)-N-[(6-Amino-2-methyl-3-pyridyl)methyl]-3-[2-(1-naphthyl)ethylamino]-4-oxo-4,6,7,8-tetrahydropyrrolo[1,2-a]pyrazine-6-carboxamide dihydrochloride] | – | – | – | – | – | –
0.013 µM | > 33 µM | > 33 µM | > 33 µM | CCNC(=O)COc1ccccc1CNC(=O)[C@@H]1CCc2cnc(NCCc3ccccc3)c(=O)n21 [Example 71, (6S)-N-[(2-Ethylcarbamoylmethoxy)benzyl]-4-oxo-3-(2-phenethylamino)-4,6,7,8-tetrahydropyrrolo [1,2-a]pyrazine-6-carboxamide] | – | – | – | – | – | –
0.007 µM | > 33 µM | > 33 µM | > 33 µM | Cc1nc(N)ccc1CNC(=O)[C@@H]1CCc2cnc(NCCc3ccccn3)c(=O)n21.Cl.Cl.Cl [Example 15, (6S)-N-[(6-Amino-2-methyl-3-pyridyl)methyl]-4-oxo-3-[2-(2-pyridyl)ethylamino]-4,6,7,8-tetrahydropyrrolo[1,2-a]pyrazine-6-carboxamide trihydrochloride] | 1.3 µM | 0.11 µM | – | – | 7 times | 1.6 times

Compound | IC50 (human thrombin) | IC50 (t-PA) | IC50 (human plasmin) | IC50 (uPA) | ACT Ctt2 (concentration that doubles the coagulation time) (human plasma [1]) | TT Ctt2 (concentration that doubles the coagulation time) (human plasma [2]) | Maximum TT increase (number of times by which the initial time has been increased) (dog plasma [3]; 10 mg/kg) | Maximum ACT increase (number of times by which the initial time has been increased) (dog plasma [4]; 10 mg/kg) | Maximum TT increase (number of times by which the initial time has been increased) (dog plasma [3]; 3 mg/kg) | Maximum ACT increase (number of times by which the initial time has been increased) (dog plasma [4]; 3 mg/kg)
COc1ccc(CCNc2ncc3n(c2=O)[C@H](C(=O)NCc2ccc(N)nc2C)CC3)cc1OC.Cl.Cl.O [Example 7, (6S)-N-[(6-Amino-2-methyl-3-pyridyl)methyl]-3-[(3,4-dimethoxyphenethyl)amino]-4-oxo-4,6,7,8-tetrahydropyrrolo[1,2-a]pyrazine-6-carboxamide dihydrochloride monohydrate] | 0.042 µM | > 33 µM | > 33 µM | > 33 µM | 9.1 µM | 3 µM | – | – | 2.5 times | 1.4 times
